Literature values as cited in patent US20110159084A1, “RALOXIFENE PHARMACEUTICAL FORMULATIONS” (DR. REDDY'S LABORATORIES LTD., priority 2008, published 2011).

Columns and labels:
[1] = in vivo
[2] = 37° C.

Molecule	absolute bioavailability [1]	intra-subject pharmacokinetic variability [1]	solubility in simulated gastric fluid (SGF) USP ([2]; SGF USP)	solubility in simulated intestinal fluid (SIF) USP ([2]; SIF USP)
Raloxifene	2%	approximately 30 % coefficient of variation		
Cl.O=C(c1ccc(OCCN2CCCCC2)cc1)c1c(-c2ccc(O)cc2)sc2cc(O)ccc12 [Raloxifene hydrochloride, methanone, [6-hydroxy-2-(4-hydroxyphenyl)benzo[b]thiene-3-yl]-[4-[2-(1-piperidinyl)ethoxy]phenyl]-, hydrochloride]	about 2%		3 µg/mL	2 µg/mL
